{"source": "paper PMC7821381", "about": "“Multi-Targeted Anticancer Activity of Imidazolate Phosphane Gold(I) Compounds by Inhibition of DHFR and TrxR in Breast Cancer Cells” (Frontiers in Chemistry, 2021)", "key": {"[1]": {"target": "T1, dihydrofolate reductase (DHFR) (Homo sapiens, UniProt P00374)", "T1 construct": "Cell lysates were collected using Cell Culture Lysis Reagent; endogenous in cells; host or cells: MDA-MB231 and SKBR3 (human breast cancer cells)", "T1 sequence (P00374 1-187)": "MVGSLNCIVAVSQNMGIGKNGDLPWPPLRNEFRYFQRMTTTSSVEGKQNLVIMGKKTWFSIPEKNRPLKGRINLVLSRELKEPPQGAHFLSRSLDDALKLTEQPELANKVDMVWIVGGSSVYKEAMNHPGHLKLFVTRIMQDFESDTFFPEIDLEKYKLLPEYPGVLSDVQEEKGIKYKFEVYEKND", "experiment": "DHFR specific enzymatic activity in lysates of treated SKBR3 cells", "format": "cell-based", "conditions": "6 μM (maximum inhibition)", "description": "SKBR3, MDA-MB-231 and A17 cells were plated onto 100 mm cell culture dishes (2 × 10^6 cells/ dish). The day after, cells were treated with vehicle alone (DMSO) as control or increasing concentrations of compound 5 and compound 6 in DMEM supplemented with 2% FBS (Invitrogen, Carlsbad, CA) for 4 h or 12 h. Representative pictures of cells treated with compound 5 or 6 at the indicated concentration for 4 or 12 h just before to take cell lysates for the enzymatic tests are reported as supplemental files. Cell lysates were collected using Cell Culture Lysis Reagent (Promega, Madison, WI) supplemented with BSA (1%) and protease inhibitors. DHFR activity was assessed by spectrophotometric assay as reported elsewhere (Wang et al., [2020]) in which the reaction rate was followed by recording the decreasing absorbance at 340 nm due to oxidation of NADPH to NADP^+, using a Shimadzu UV-2450 spectrophotometer. When necessary, because of low protein content in the lysates, the DHFR enzymatic activity was measured by a discontinuous direct HPLC assay using an Agilent 1100 system. HPLC-DAD (Agilent 1100) was used to detect and quantify the presence of NADP^+, as one of the products of DHFR catalyzed reaction, in cell lysates. Fifty microliter of the cell lysate were incubated at 37°C in a reaction mixture containing 760 μl of buffer (0.05 M Hepes pH 7.3), 20 μl of NADPH 4 mM, and 20 μl of dihydrofolate (H2F) 4 mM. The samples for HPLC analysis were prepared as follows: 50 μl aliquots of each mixture were stopped at different times (0, 5, 10, 20, 30, and 60 min) by adding 25 μl of HClO4 1.2 M; after 10 min on ice and centrifugation for 5 min at 12,000 g, 60 μl of each supernatant were neutralized by adding 17.5 μl of K2CO3 0.79 M, kept on ice and centrifuged again. Fifty microliter of the supernatant obtained were directly injected into the reversed phase column for separations of reagents and products of the enzyme catalyzed reaction. The column used is a Supelcosil LC RP 18 (4.6 × 250 mm) with pre-column SupelGuard. The HPLC settings are the same reported in Wang et al. ([2020]). The amounts of product (NADP^+) were determined from the peak areas of the HPLC-separated compounds with reference to appropriate standards. One enzyme unit is defined as the amount of enzyme which catalyzes the reduction of 1 μmol of dihydrofolate, per minute, at 37°C. Enzyme activities were normalized by the protein content, determined by the Bradford assay (Bradford, [1976])."}, "A17 cells": {"system": "A17 cells", "experiment": "MTT cell viability assay on A17 cells", "format": "cell-based, murine", "conditions": "A17, 48 h, ± S. D.", "text": "Human MDA-MB-231 (ER–/PR–/HER2–) and SK-BR-3 (ER–/PR–/HER2+) cells were obtained from American Type Culture Collection (Rockville, MD) and cultured in Dulbecco's Modified Essential Medium (DMEM, Gibco, Life Technologies) supplemented with 10% fetal bovine serum (FBS, Gibco, Life Technologies) and 1% penicillin–streptomycin (Gibco, Life Technologies). A17 cells were established from a spontaneous lobular carcinoma that arose in an FVB/neuT mouse (Galiè et al., [2005]), and maintained in DMEM plus 20% FBS and 1% penicillin-streptomycin. Cells were cultured at 37°C under humidified atmosphere with 5% CO2.\nStock solutions were prepared for each gold(I) compound (50 mM) using dimethyl sulfoxide (DMSO) (Sigma-Aldrich) as solvent. The effects of gold(I) compounds on SKBR3, A17 and MDA-MB231 cells viability were evaluated by seeding, respectively, 10, ^*10^3, 2.5 ^*10^3, 7, ^*10^3 cells/well in 96 wells plates in complete medium (DMEM supplemented with FBS) and compared to those of cisplatin. The day after, fresh medium containing vehicle alone (DMSO, 1 % v/v final concentration) or increasing concentrations of each compound ranging from 0.1 to 100 μM was added. Cell viability was determined using a MTT [3-(4,5-dimethylthiazol-2-yl)-2,5-diphenyl-2H-tetrazolium bromide Sigma Aldrich, St. Louis, MO] assay, which is based on the conversion of MTT to formazan crystals by mitochondrial enzymes, after 24, 48, and 72 h. The formazan deposits were dissolved in DMSO and the absorbance of each well was measured at 540 nm in Multiskan Ascent 96/384 Plate Reader. Each drug concentration was evaluated with 8 replicates and each experiment was repeated three times. At the end of the experiments a dose–response curve was plotted, and the IC50 concentrations were determined. […] Quantitative data are presented as means ± SEM. […]\nIC50 values were calculated for each of the cell lines tested, by fitting the concentration-effect curves data obtained in the three experiments with the sigmoid-Emax model using nonlinear regression, weighted by the reciprocal of the square of the predicted effect."}, "[2]": {"system": "thioredoxin reductase (TrxR)", "conditions": "for Specific enzymatic activity of TrxR: SKBR3, 12 h treatment, 8 μM (maximum inhibition), control 4.07 ± 0.32; for TrxR residual activity: SKBR3 cells, versus control cells", "description": "The assay was performed as previously reported (Galassi et al., [2012]) in 0.2 M Na, K-phosphate buffer (pH 7.4) containing 2 mM EDTA. The assay contained 0.12 mM NADPH and different amounts of cell lysate. The reaction was initiated by the addition of 3 mM 5,5′-dithiobis (2-nitrobenzoic acid) (DTNB) and the increase of absorbance was monitored at 412 nm over 5 min at 25°C."}, "[3]": {"conditions": "SKBR3, 4 h treatment, control 0.72 ± 0.05"}, "[4]": {"conditions": "SKBR3, 12 h treatment, control 0.67 ± 0.10"}}, "data": [{"substance": "4,5-dichloro-imidazolate-1yl-gold(I)-(triphenylphosphane) [Compound 6]", "values": [{"measurement": "Specific enzymatic activity of DHFR", "setting": "[1]; [3]", "result": "0.64 ± 0.06", "unit": "mU/mg"}, {"measurement": "Specific enzymatic activity of DHFR", "setting": "[1]; [4]", "result": "0.34 ± 0.01", "unit": "mU/mg"}, {"measurement": "IC50", "setting": "A17 cells", "result": "14.4 ± 0.7", "unit": "µM"}, {"measurement": "Specific enzymatic activity of TrxR", "setting": "[2]", "result": "1.51 ± 0.04 (8 μM) mU/mg"}, {"measurement": "TrxR residual activity", "setting": "[2]", "result": 49, "unit": "%"}]}, {"substance": "4,5-dicyano-imidazolate-1yl-gold(I)-(triphenylphosphane) [Compound 5]", "values": [{"measurement": "Specific enzymatic activity of DHFR", "setting": "[1]; [3]", "result": "0.54 ± 0.04", "unit": "mU/mg"}, {"measurement": "Specific enzymatic activity of DHFR", "setting": "[1]; [4]", "result": "0.29 ± 0.05", "unit": "mU/mg"}, {"measurement": "IC50", "setting": "A17 cells", "result": "16.2 ± 0.59", "unit": "µM"}, {"measurement": "Specific enzymatic activity of TrxR", "setting": "[2]", "result": "1.98 ± 0.06 (8 μM) mU/mg"}, {"measurement": "TrxR residual activity", "setting": "[2]", "result": 37, "unit": "%"}]}]}
